Experimental data as given in PubChem BioAssay (NCI).
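In this assay, cells in 96-well plates receive the compound at five concentrations for 48 hours. Endpoints are linearly interpolated between the surrounding concentrations. Definition used: TGI = concentration required for complete inhibition of growth.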

Key:
Experiment in all cases: NCI anticancer screen, dose series, 48 h
786-0 renal = test system: 786-0 renal
A498 renal = test system: A498 renal
A549 NSCLC = test system: A549 NSCLC
ACHN renal = test system: ACHN renal
BT-549 breast = test system: BT-549 breast
CAKI-1 renal = test system: CAKI-1 renal
CCRF-CEM leukemia = test system: CCRF-CEM leukemia
COLO 205 colon = test system: COLO 205 colon
DU-145 prostate = test system: DU-145 prostate
EKVX NSCLC = test system: EKVX NSCLC
HCC-2998 colon = test system: HCC-2998 colon
HCT-116 colon = test system: HCT-116 colon
HCT-15 colon = test system: HCT-15 colon
HL-60(TB) leukemia = test system: HL-60(TB) leukemia
HOP-62 NSCLC = test system: HOP-62 NSCLC
HOP-92 NSCLC = test system: HOP-92 NSCLC
HS 578T breast = test system: HS 578T breast
HT29 colon = test system: HT29 colon
IGROV1 ovarian = test system: IGROV1 ovarian
K-562 leukemia = test system: K-562 leukemia
KM12 colon = test system: KM12 colon
LOX IMVI melanoma = test system: LOX IMVI melanoma
M14 melanoma = test system: M14 melanoma
MALME-3M melanoma = test system: MALME-3M melanoma
MCF7 breast = test system: MCF7 breast
MDA-MB-231 breast = test system: MDA-MB-231 breast
MDA-MB-435 = test system: MDA-MB-435
MDA-N = test system: MDA-N
MOLT-4 leukemia = test system: MOLT-4 leukemia
NCI-H23 lung = test system: NCI-H23 lung
NCI-H460 lung = test system: NCI-H460 lung
NCI-H522 lung = test system: NCI-H522 lung
NCI/ADR-RES ovarian = test system: NCI/ADR-RES ovarian
OVCAR-3 ovarian = test system: OVCAR-3 ovarian
OVCAR-4 ovarian = test system: OVCAR-4 ovarian
OVCAR-5 ovarian = test system: OVCAR-5 ovarian
OVCAR-8 ovarian = test system: OVCAR-8 ovarian
PC-3 prostate = test system: PC-3 prostate
RPMI-8226 leukemia = test system: RPMI-8226 leukemia
RXF 393 renal = test system: RXF 393 renal
SF-268 CNS = test system: SF-268 CNS
SF-295 CNS = test system: SF-295 CNS
SF-539 CNS = test system: SF-539 CNS
SK-MEL-2 melanoma = test system: SK-MEL-2 melanoma
SK-MEL-28 melanoma = test system: SK-MEL-28 melanoma
SK-MEL-5 melanoma = test system: SK-MEL-5 melanoma
SK-OV-3 ovarian = test system: SK-OV-3 ovarian
SN12C renal = test system: SN12C renal
SNB-19 CNS = test system: SNB-19 CNS
SR leukemia = test system: SR leukemia
SW-620 colon = test system: SW-620 colon
T-47D breast = test system: T-47D breast
TK-10 renal = test system: TK-10 renal
U251 CNS = test system: U251 CNS
UACC-257 melanoma = test system: UACC-257 melanoma
UACC-62 melanoma = test system: UACC-62 melanoma
UO-31 renal = test system: UO-31 renal
NCI-H226 lung = test system: NCI-H226 lung
SNB-75 CNS = test system: SNB-75 CNS

## CCOC(=O)Nc1ccc(S(=O)(=O)Nn2cnnc2)cc1
786-0 renal
  TGI: > 100 µM
A498 renal
  TGI: 96.2 µM
A549 NSCLC
  TGI: > 100 µM
ACHN renal
  TGI: > 100 µM
BT-549 breast
  TGI: > 100 µM
CAKI-1 renal
  TGI: > 100 µM
CCRF-CEM leukemia
  TGI: > 100 µM
COLO 205 colon
  TGI: > 100 µM
DU-145 prostate
  TGI: > 100 µM
EKVX NSCLC
  TGI: > 100 µM
HCC-2998 colon
  TGI: 74.5 µM
HCT-116 colon
  TGI: > 100 µM
HCT-15 colon
  TGI: > 100 µM
HL-60(TB) leukemia
  TGI: > 100 µM
HOP-62 NSCLC
  TGI: > 100 µM
HOP-92 NSCLC
  TGI: > 100 µM
HS 578T breast
  TGI: > 100 µM
HT29 colon
  TGI: 59.9 µM
IGROV1 ovarian
  TGI: > 100 µM
K-562 leukemia
  TGI: 77.9 µM
KM12 colon
  TGI: > 100 µM
LOX IMVI melanoma
  TGI: > 100 µM
M14 melanoma
  TGI: > 100 µM
MALME-3M melanoma
  TGI: > 100 µM
MCF7 breast
  TGI: > 100 µM
MDA-MB-231 breast
  TGI: > 100 µM
MDA-MB-435
  TGI: 49.7 µM
MDA-N
  TGI: 73.9 µM
MOLT-4 leukemia
  TGI: > 100 µM
NCI-H23 lung
  TGI: > 100 µM
NCI-H460 lung
  TGI: > 100 µM
NCI-H522 lung
  TGI: > 100 µM
NCI/ADR-RES ovarian
  TGI: > 100 µM
OVCAR-3 ovarian
  TGI: 77.4 µM
OVCAR-4 ovarian
  TGI: 73.4 µM
OVCAR-5 ovarian
  TGI: > 100 µM
OVCAR-8 ovarian
  TGI: > 100 µM
PC-3 prostate
  TGI: > 100 µM
RPMI-8226 leukemia
  TGI: 94.3 µM
RXF 393 renal
  TGI: > 100 µM
SF-268 CNS
  TGI: > 100 µM
SF-295 CNS
  TGI: > 100 µM
SF-539 CNS
  TGI: 65.1 µM
SK-MEL-2 melanoma
  TGI: > 100 µM
SK-MEL-28 melanoma
  TGI: > 100 µM
SK-MEL-5 melanoma
  TGI: > 100 µM
SK-OV-3 ovarian
  TGI: > 100 µM
SN12C renal
  TGI: > 100 µM
SNB-19 CNS
  TGI: > 100 µM
SR leukemia
  TGI: > 100 µM
SW-620 colon
  TGI: > 100 µM
T-47D breast
  TGI: > 100 µM
TK-10 renal
  TGI: > 100 µM
U251 CNS
  TGI: > 100 µM
UACC-257 melanoma
  TGI: > 100 µM
UACC-62 melanoma
  TGI: > 100 µM
UO-31 renal
  TGI: > 100 µM

## Cc1cc(-c2nc3cccc(O)c3s2)ccc1N
786-0 renal
  TGI: > 100 µM
A549 NSCLC
  TGI: 41.4 µM
ACHN renal
  TGI: 49.9 µM
BT-549 breast
  TGI: 54.7 µM
CAKI-1 renal
  TGI: 71.4 µM
CCRF-CEM leukemia
  TGI: 65.2 µM
COLO 205 colon
  TGI: 58.1 µM
DU-145 prostate
  TGI: > 100 µM
EKVX NSCLC
  TGI: > 100 µM
HCC-2998 colon
  TGI: > 100 µM
HCT-116 colon
  TGI: > 100 µM
HCT-15 colon
  TGI: > 100 µM
HL-60(TB) leukemia
  TGI: 47.2 µM
HOP-62 NSCLC
  TGI: > 100 µM
HOP-92 NSCLC
  TGI: > 100 µM
HS 578T breast
  TGI: 46.4 µM
HT29 colon
  TGI: > 100 µM
IGROV1 ovarian
  TGI: > 100 µM
K-562 leukemia
  TGI: > 100 µM
KM12 colon
  TGI: 36.7 µM
LOX IMVI melanoma
  TGI: > 100 µM
M14 melanoma
  TGI: 37.7 µM
MCF7 breast
  TGI: 34.1 µM
MDA-MB-231 breast
  TGI: > 100 µM
MDA-MB-435
  TGI: 41.9 µM
MDA-N
  TGI: > 100 µM
MOLT-4 leukemia
  TGI: 78.4 µM
NCI-H226 lung
  TGI: > 100 µM
NCI-H23 lung
  TGI: 93 µM
NCI-H460 lung
  TGI: > 100 µM
NCI/ADR-RES ovarian
  TGI: 55.9 µM
OVCAR-3 ovarian
  TGI: > 100 µM
OVCAR-8 ovarian
  TGI: 99 µM
PC-3 prostate
  TGI: 98.5 µM
RPMI-8226 leukemia
  TGI: > 100 µM
RXF 393 renal
  TGI: > 100 µM
SF-268 CNS
  TGI: > 100 µM
SF-295 CNS
  TGI: > 100 µM
SF-539 CNS
  TGI: > 100 µM
SK-MEL-2 melanoma
  TGI: > 100 µM
SK-MEL-28 melanoma
  TGI: > 100 µM
SK-MEL-5 melanoma
  TGI: 48.8 µM
SK-OV-3 ovarian
  TGI: > 100 µM
SN12C renal
  TGI: > 100 µM
SNB-19 CNS
  TGI: 7.43 µM
SNB-75 CNS
  TGI: > 100 µM
SR leukemia
  TGI: > 100 µM
SW-620 colon
  TGI: > 100 µM
T-47D breast
  TGI: > 100 µM
TK-10 renal
  TGI: > 100 µM
U251 CNS
  TGI: > 100 µM
UACC-257 melanoma
  TGI: > 100 µM
UACC-62 melanoma
  TGI: 33.1 µM
UO-31 renal
  TGI: 25.4 µM
